{
  "source": "DBAASP",
  "experiment_in_all_cases": "≥ marks a high value that may be exact or a test limit, other limits are often not marked, values filed in µg/mL are converted to µM",
  "key": {"Escherichia coli C25": {"system": "Escherichia coli C25"}, "[1]": {"system": "Staphylococcus aureus ATCC 25923"}, "[2]": {"system": "Klebsiella pneumoniae ATCC 13883"}, "[3]": {"system": "Escherichia coli KpC+001812446"}, "[4]": {"system": "Escherichia coli ATCC 25922"}, "[5]": {"system": "Klebsiella pneumoniae KpC+001825971"}, "[6]": {"system": "Staphylococcus epidermidis"}, "Cryptococcus neoformans": {"system": "Cryptococcus neoformans"}, "Vibrio alginolyticus": {"system": "Vibrio alginolyticus"}, "Escherichia coli": {"system": "Escherichia coli"}, "Aeromonas hydrophila": {"system": "Aeromonas hydrophila"}, "[7]": {"system": "Corynebacterium glutamicum"}, "Pseudomonas aeruginosa": {"system": "Pseudomonas aeruginosa"}, "Candida albicans": {"system": "Candida albicans"}, "Vibrio parahaemolyticus": {"system": "Vibrio parahaemolyticus"}, "Staphylococcus aureus": {"system": "Staphylococcus aureus"}, "Bacillus cereus": {"system": "Bacillus cereus"}, "[8]": {"system": "Salmonella enterica subsp. arizonae"}, "Bibersteinia trehalosi": {"system": "Bibersteinia trehalosi"}, "[9]": {"system": "Pseudomonas aeruginosa PAO1"}, "[10]": {"system": "Mannheimia haemolytica Serovar 1"}, "[11]": {"system": "Corynebacterium pseudotuberculosis ATCC 19410"}, "Pasteurella multocida": {"system": "Pasteurella multocida"}, "[12]": {"system": "Mannheimia haemolytica Serovar 2"}, "[13]": {"system": "Mannheimia haemolytica Serovar 6"}, "Klebsiella pneumoniae": {"system": "Klebsiella pneumoniae"}, "Aspergillus fumigatus": {"system": "Aspergillus fumigatus"}, "[14]": {"system": "Pseudomonas aeruginosa CICC 11421"}, "[15]": {"system": "Staphylococcus aureus ATCC 29213"}, "[16]": {"system": "Pseudomonas aeruginosa CICC 11431"}, "[17]": {"system": "Pseudomonas aeruginosa CICC 21630"}, "[18]": {"system": "Pseudomonas aeruginosa CICC 11411"}, "[19]": {"system": "Pseudomonas aeruginosa ATCC 27853"}, "[20]": {"system": "Pseudomonas aeruginosa 21328"}, "[21]": {"system": "Pseudomonas aeruginosa CICC 21625"}, "[22]": {"system": "Pseudomonas aeruginosa 25349"}, "[23]": {"system": "Pseudomonas aeruginosa CICC 10419"}, "[24]": {"system": "Staphylococcus epidermidis KCTC 1917"}, "[25]": {"system": "Salmonella typhimurium KCTC 1926"}, "[26]": {"system": "Pseudomonas aeruginosa CCARM 2075"}, "[27]": {"system": "Pseudomonas aeruginosa ATCC 15692"}, "[28]": {"system": "Staphylococcus aureus CCARM 3125"}, "[29]": {"system": "Staphylococcus aureus 3518"}, "[30]": {"system": "Staphylococcus aureus CCARM 3709"}, "[31]": {"system": "Pseudomonas aeruginosa CCARM 2073"}, "[32]": {"system": "Pseudomonas aeruginosa 4007"}, "[33]": {"system": "Listeria monocytogenes KCTC 19111"}, "[34]": {"system": "Staphylococcus aureus 3399"}, "[35]": {"system": "Pseudomonas aeruginosa 3241"}},
  "data": [
    {"smiles": "CC[C@H](C)[C@H](NC(=O)CNC(=O)[C@H](CCCCN)NC(=O)[C@H](Cc1ccc(O)cc1)NC(=O)[C@@H](NC(=O)[C@H](CCCCN)NC(=O)[C@H](Cc1ccccc1)NC(=O)[C@H](Cc1c[nH]c2ccccc12)NC(=O)[C@@H](N)CCCCN)C(C)C)C(=O)N[C@@H](Cc1ccc(O)cc1)C(=O)N[C@@H](CCCCN)C(=O)N[C@@H](CCCCN)C(=O)N[C@@H](CCCCN)C(N)=O", "note": "[KWFKVYKGIYKKK]", "values": [
      {"measurement": "MIC", "setting": "Escherichia coli C25", "result": 8.2, "unit": "µM"},
      {"measurement": "MIC", "setting": "[1]", "result": 33, "unit": "µM"}
    ]},
    {"smiles": "CC[C@H](C)[C@H](NC(=O)[C@H](CCCCN)NC(=O)[C@H](CCCCN)NC(=O)[C@H](Cc1ccccc1)NC(=O)[C@H](CC(C)C)NC(=O)[C@H](CCCCN)NC(=O)[C@H](Cc1c[nH]c2ccccc12)NC(=O)[C@H](CCCCN)NC(=O)[C@H](Cc1cnc[nH]1)NC(=O)[C@@H](NC(=O)[C@@H](N)C(C)C)[C@@H](C)CC)C(=O)NCC(=O)N[C@@H](C)C(=O)N[C@H](C(=O)N[C@@H](CC(C)C)C(=O)N[C@@H](CCCCN)C(=O)N[C@H](C(=O)N[C@@H](CC(C)C)C(=O)O)C(C)C)C(C)C", "note": "[VIHKWKLFKKIGAVLKVL]", "values": [
      {"measurement": "MIC", "setting": "[2]", "result": 30, "unit": "µM"},
      {"measurement": "MIC", "setting": "[3]", "result": 4, "unit": "µM"},
      {"measurement": "MIC", "setting": "[4]", "result": 4, "unit": "µM"},
      {"measurement": "MIC", "setting": "[5]", "result": 8, "unit": "µM"}
    ]},
    {"smiles": "CC[C@H](C)[C@H](NC(=O)[C@H](C)NC(=O)CNC(=O)[C@@H](NC(=O)[C@@H](NC(=O)[C@H](Cc1cnc[nH]1)NC(=O)[C@H](CCCN=C(N)N)NC(=O)[C@H](Cc1ccccc1)NC(=O)[C@@H](N)Cc1ccccc1)[C@@H](C)CC)C(C)C)C(=O)N[C@@H](CO)C(=O)N[C@@H](CCCN=C(N)N)C(=O)N[C@H](C(=O)N[C@@H](Cc1ccccc1)C(=O)NCC(=O)N[C@@H](CCC(N)=O)C(=O)N[C@@H](CCCCN)C(=O)N[C@@H](CCC(N)=O)C(=O)N[C@@H](CCCN=C(N)N)C(=O)N[C@@H](CC(=O)O)C(=O)N[C@@H](CCSC)C(=O)N[C@@H](C)C(=O)N[C@@H](CC(=O)O)C(=O)O)[C@@H](C)CC", "note": "[FFRHIVGAISRIFGQKQRDMAD]", "values": [
      {"measurement": "MIC", "setting": "[6]", "result": 17.7, "unit": "µM"},
      {"measurement": "MIC", "setting": "Cryptococcus neoformans", "result": 2.21, "unit": "µM"},
      {"measurement": "MIC", "setting": "Vibrio alginolyticus", "result": "≥ 50", "unit": "µM"},
      {"measurement": "MIC", "setting": "Escherichia coli", "result": 17.7, "unit": "µM"},
      {"measurement": "MIC", "setting": "Aeromonas hydrophila", "result": "≥ 50", "unit": "µM"},
      {"measurement": "MIC", "setting": "[7]", "result": 2.21, "unit": "µM"},
      {"measurement": "MIC", "setting": "Pseudomonas aeruginosa", "result": 35.4, "unit": "µM"},
      {"measurement": "MIC", "setting": "Candida albicans", "result": 17.7, "unit": "µM"},
      {"measurement": "MIC", "setting": "Vibrio parahaemolyticus", "result": "≥ 50", "unit": "µM"},
      {"measurement": "MIC", "setting": "Staphylococcus aureus", "result": 4.42, "unit": "µM"},
      {"measurement": "MIC", "setting": "Bacillus cereus", "result": 17.7, "unit": "µM"}
    ]},
    {"smiles": "CC[C@H](C)[C@H](N)C(=O)N[C@@H](CCCN=C(N)N)C(=O)N[C@@H](CCCN=C(N)N)C(=O)N[C@H](C(=O)N[C@H](C(=O)N[C@@H](CCCN=C(N)N)C(=O)N[C@@H](CCCCN)C(=O)N[C@H](C(=O)N[C@H](C(=O)N[C@@H](Cc1cnc[nH]1)C(=O)N[C@H](C(=O)N[C@H](C(=O)N[C@@H](CCCCN)C(=O)N[C@@H](CCCCN)C(=O)O)[C@@H](C)CC)[C@@H](C)CC)[C@@H](C)CC)[C@@H](C)CC)[C@@H](C)CC)[C@@H](C)CC", "note": "[IRRIIRKIIHIIKK]", "values": [
      {"measurement": "MIC", "setting": "[8]", "result": 11.1, "unit": "µM"},
      {"measurement": "MIC", "setting": "Bibersteinia trehalosi", "result": 11.1, "unit": "µM"},
      {"measurement": "MIC", "setting": "[9]", "result": 2.78, "unit": "µM"},
      {"measurement": "MIC", "setting": "[10]", "result": 5.55, "unit": "µM"},
      {"measurement": "MIC", "setting": "[11]", "result": 11.1, "unit": "µM"},
      {"measurement": "MIC", "setting": "Pasteurella multocida", "result": 8.33, "unit": "µM"},
      {"measurement": "MIC", "setting": "[12]", "result": 2.33, "unit": "µM"},
      {"measurement": "MIC", "setting": "[13]", "result": 3.72, "unit": "µM"},
      {"measurement": "MIC", "setting": "Klebsiella pneumoniae", "result": "> 11.1", "unit": "µM"},
      {"measurement": "MIC", "setting": "Aspergillus fumigatus", "result": 22.2, "unit": "µM"},
      {"measurement": "MIC", "setting": "Staphylococcus aureus", "result": "> 11.1", "unit": "µM"}
    ]},
    {"smiles": "C[C@H](N)C(=O)N[C@@H](CCCN=C(N)N)C(=O)N[C@@H](CCCN=C(N)N)C(=O)N[C@@H](C)C(=O)N[C@@H](CCCN=C(N)N)C(=O)N[C@@H](CCCN=C(N)N)C(=O)N[C@@H](CCCN=C(N)N)C(=O)N[C@@H](Cc1c[nH]c2ccccc12)C(=O)N[C@@H](CCCN=C(N)N)C(=O)N[C@@H](CCCN=C(N)N)C(=O)N[C@@H](CCCN=C(N)N)C(=O)N[C@@H](C)C(=O)N[C@@H](CCCN=C(N)N)C(=O)N[C@@H](CCCN=C(N)N)C(=O)N[C@@H](C)C(N)=O", "note": "[ARRARRRWRRRARRA]", "values": [
      {"measurement": "MIC", "setting": "[14]", "result": "≥ 125", "unit": "µM"},
      {"measurement": "MIC", "setting": "[15]", "result": 31.2, "unit": "µM"},
      {"measurement": "MIC", "setting": "[16]", "result": "≥ 125", "unit": "µM"},
      {"measurement": "MIC", "setting": "[4]", "result": 31.2, "unit": "µM"},
      {"measurement": "MIC", "setting": "[17]", "result": "≥ 125", "unit": "µM"},
      {"measurement": "MIC", "setting": "[18]", "result": "≥ 125", "unit": "µM"},
      {"measurement": "MIC", "setting": "[19]", "result": 62.4, "unit": "µM"},
      {"measurement": "MIC", "setting": "[20]", "result": "≥ 125", "unit": "µM"},
      {"measurement": "MIC", "setting": "[21]", "result": "≥ 125", "unit": "µM"},
      {"measurement": "MIC", "setting": "[22]", "result": 15.6, "unit": "µM"},
      {"measurement": "MIC", "setting": "[23]", "result": "≥ 125", "unit": "µM"}
    ]},
    {"smiles": "NCCCC[C@H](NC(=O)[C@H](Cc1ccc(O)cc1)NC(=O)[C@H](Cc1c[nH]c2ccccc12)NC(=O)[C@H](CCCCN)NC(=O)[C@H](CCCCN)NC(=O)[C@H](Cc1ccc(O)cc1)NC(=O)[C@H](Cc1c[nH]c2ccccc12)NC(=O)[C@H](CCCCN)NC(=O)[C@H](CCCCN)NC(=O)[C@H](Cc1ccc(O)cc1)NC(=O)[C@H](Cc1c[nH]c2ccccc12)NC(=O)[C@@H](N)CCCCN)C(N)=O", "note": "[KWYKKWYKKWYK]", "values": [
      {"measurement": "MIC", "setting": "[24]", "result": 2, "unit": "µM"},
      {"measurement": "MIC", "setting": "[25]", "result": 2, "unit": "µM"},
      {"measurement": "MIC", "setting": "[26]", "result": 2, "unit": "µM"},
      {"measurement": "MIC", "setting": "[27]", "result": 2, "unit": "µM"},
      {"measurement": "MIC", "setting": "[4]", "result": 2, "unit": "µM"},
      {"measurement": "MIC", "setting": "[1]", "result": 4, "unit": "µM"},
      {"measurement": "MIC", "setting": "[28]", "result": 4, "unit": "µM"},
      {"measurement": "MIC", "setting": "[29]", "result": 2, "unit": "µM"},
      {"measurement": "MIC", "setting": "[30]", "result": 2, "unit": "µM"},
      {"measurement": "MIC", "setting": "[31]", "result": 2, "unit": "µM"},
      {"measurement": "MIC", "setting": "[32]", "result": 4, "unit": "µM"},
      {"measurement": "MIC", "setting": "[33]", "result": 2, "unit": "µM"},
      {"measurement": "MIC", "setting": "[34]", "result": 4, "unit": "µM"},
      {"measurement": "MIC", "setting": "[35]", "result": 2, "unit": "µM"}
    ]}
  ]
}
